Test results as given in PubChem BioAssay (NCI).
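The compound was tested at five concentrations on cells cultured in 96-well plates, with a 48-hour exposure period. TGI is the concentration that stops growth completely.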

Tests used:
Experiment in all cases: NCI tumour cell line growth inhibition, 48 h
A549 NSCLC = system: A549 NSCLC
CAKI-1 renal = system: CAKI-1 renal
MOLT-4 leukemia = system: MOLT-4 leukemia
TK-10 renal = system: TK-10 renal
MDA-MB-435 = system: MDA-MB-435
HCT-116 colon = system: HCT-116 colon
SF-539 CNS = system: SF-539 CNS
CCRF-CEM leukemia = system: CCRF-CEM leukemia
SK-MEL-5 melanoma = system: SK-MEL-5 melanoma
786-0 renal = system: 786-0 renal
T-47D breast = system: T-47D breast

Row | SMILES | TGI (A549 NSCLC) [µM] | TGI (CAKI-1 renal) [µM] | TGI (MOLT-4 leukemia) [µM] | TGI (TK-10 renal) [µM] | TGI (MDA-MB-435) [µM] | TGI (HCT-116 colon) [µM] | TGI (SF-539 CNS) [µM] | TGI (CCRF-CEM leukemia) [µM] | TGI (SK-MEL-5 melanoma) [µM] | TGI (786-0 renal) [µM] | TGI (T-47D breast) [µM]
1 | CO[P@@]1(=O)O[C@@H](c2ccccc2)[C@H](O)[C@@]1(O)c1ccccc1 | > 100 | > 100 | > 100 | > 100 | > 100 | > 100 | > 100 | > 100 | > 100 | > 100 | > 100
2 | CSC12c3cc(C)n(-c4ccc(I)cc4)c3CC(C)(C)CN1C(=O)C2Oc1ccccc1 (centres undefined) | > 100 | > 100 | > 100 | > 100 | > 100 | > 100 | > 100 | > 100 | > 100 | > 100 | > 100
3 | O=C1c2ccccc2C(=O)c2c1oc1cc(O)c(Cl)cc21 | 9.46 | 32.5 | > 62.5 | 38.5 | 3.34 | 15.1 | 16.1 | 55.3 | 1.58 | 20.9 | 48.6
4 | C/C(=C\[Si](C)(C)c1ccco1)C(C)(O)[C@H](C)O (some centres undefined) | > 100 | > 100 | > 100 | > 100 | > 100 | > 100 | > 100 | > 100 | > 100 | > 100 | 54.2
5 | c1ccc2c(c1)CCN1CCc3ccccc3C1C2 (centres undefined) | > 100 | > 100 | > 100 | > 100 | > 100 | > 100 | 61.5 | > 100 | 37 | > 100 | > 100
6 | N#CCCC1(CCC#N)S(=O)(=O)OCCOS1(=O)=O | > 100 | > 100 | > 100 | > 100 | > 100 | > 100 | 31.1 | > 100 | > 100 | > 100 | > 100
7 | CCC1(c2ccc(OC)c(OC)c2)CCN(S(=O)(=O)c2ccc(C)cc2)C1 (centres undefined) | > 100 | > 100 | 64.1 | > 100 | > 100 | > 100 | > 100 | > 100 | > 100 | > 100 | > 100
8 | CNC(=O)O/N=C1\N(C)CN(c2ccccc2)C12CCN(CCCC(=O)c1ccc(F)cc1)CC2 | > 100 | > 100 | > 100 | > 100 | > 100 | > 100 | > 100 | > 100 | 33 | > 100 | > 100
9 | NC(=O)C1=C(O)[C@@]2(O)C(=O)C3=C(O)c4c(O)cccc4CC3C[C@H]2CC1=O (some centres undefined) | 14.9 | 26.7 | 10.6 | 43.7 | 40.2 | 12 | 13.4 | 10.4 | 3.67 | 17.6 | 23.8
